# Laboratory results taken from patent US20090255006A1, “Transgenic Zebrafish” (University of Georgia Research Foundation, Inc., priority 2008, published 2009).
# Entries after “also recorded” stand apart in the source; their conditions may differ. Like-named read-outs stand apart in the source and are kept apart here.
# What was measured:
# Nodal receptors [1] = test: Block of Nodal signaling with SB-505124 in Tg-SqtapGFPi embryos, gfp in situ hybridization; type: in vivo, zebrafish; settings: 50 μM
# Nodal receptors [2] = settings: cited from earlier work
# sqt and cyc transcripts = test: Targeted injection of morpholinos into the YSL, morphology of live embryos; type: in vivo, zebrafish; settings: 8 ng MO into YSL at 3 hpf
# Description: Wild-type embryos were obtained from natural crosses of Wik fish. Collected embryos were maintained at 28.5° C. and staged according to morphological criteria (Kimmel et al., Dev. Dyn., 203:253-310 (1995). Translation blocking morpholinos against sqt and cyc have been described previously (Feldman and Stemple, Genesis, 30: 175-177 (2001); Karlen and Rebagliati, Genesis, 30: 126-128 (2001). The MO sequences are as follows: sqtMO: 5′-[…]-3′ (SEQ ID NO:1); sqtMIS: ATcTgAAAATgAAGcTAATAATgCAC-3′ (SEQ ID NO:2); cycMO: 5′-[…]-3′ (SEQ ID NO:3); cycMIS: 5′-GCcACTgCGAaGTGTGgTcAT-3′(SEQ ID NO:4). Nucleotides in lower case represent mismatches. The sqtMOs were tagged with lissamine, while the cycMOs were tagged with fluorescein. Embryos were injected with each MO at 3 hpf soon after formation of the YSL. The distribution of the MO in the YSL was verified 2 h after injection. Embryos with mislocalized MOs were removed from the experiments.
# To test if sqt and cyc are required in the YSL, their function in this tissue was specifically knocked down by targeted injection of antisense morpholinos (MOs) directed against sqt and cyc transcripts. […] When cyc function alone is depleted from the YSL, all embryos have normal shields (100%, N=36) (FIG. 5E, arrow). At 24 hpf, the cyc-depleted embryos, are indistinguishable from embryos injected with control MOs (100%, N=22) (FIG. 5F). When sqt function is depleted from the YSL, by contrast, the majority of embryos lack the embryonic shield ([…], N=11) (FIG. 5G).
compound,measurement,setting,value
Cc1cccc(-c2[nH]c(C(C)(C)C)nc2-c2ccc3c(c2)OCO3)n1 [SB-505124],gfp expression in the EVL,Nodal receptors [1],"reduced, but not eliminated; also recorded: reduced to a greater extent"
same,gfp expression in the YSL,Nodal receptors [1],"consistently reduced, but not completely eliminated; also recorded: persists"
same,gfp expression in the blastomeres,Nodal receptors [1],eliminated; also recorded: reduced to a greater extent
same,overall levels of gfp expression,Nodal receptors [1],reduced
same,phenotype of treated embryos,"Nodal receptors [2]; 50 μM, added to embryos at 3 hpf or earlier",sufficient to phenocopy embryos lacking nodal-related gene function
same,phenotype of treated embryos,"Nodal receptors [2]; later treatments, or lower doses",milder phenotypes
"cycMO: translation blocking morpholino against cyc, 5′-GCGACTCCGAGCGTGTGCATGATG-3′ (SEQ ID NO:3), tagged with fluorescein (all phosphorodiamidate morpholino (PMO); fluorescein tag, position not given here)",embryos with normal shields,sqt and cyc transcripts; 6 hpf,100%
same,embryos indistinguishable from embryos injected with control MOs,sqt and cyc transcripts; 24 hpf,100%
"sqtMO: translation blocking morpholino against sqt, 5′-ATGTCAAATCAAGGTAATAATCCAC-3′ (SEQ ID NO:1), tagged with lissamine (all phosphorodiamidate morpholino (PMO); lissamine tag, position not given here)",embryos lacking the embryonic shield,sqt and cyc transcripts; 6 hpf,54%
same,embryos displaying mild cyclopia,sqt and cyc transcripts; 24 hpf,16%
